Calls of active or inactive are those of the source. The rule behind the calls is not given here.
Experiments:
Mus musculus [1] = experiment: Anti-colitis activity against DSS-induced C57BL/6 mouse model assessed as suppression of DSS induced fecal occult blood at 0.125 to 0.5 mg/kg, po administered every 72 hrs for 10 days; assay type: functional, organism-based; details: dose 0.125-0.5 mg/kg, time 10.0 day
[2] = molecular target: NACHT, LRR and PYD domains-containing protein 3 (Mus musculus) (UniProt Q8R4B8); experiment: Inhibition of NLRP3 inflammasome activation in LPS-stimulated mouse J774.A1 cells assessed as blockage of NLRP3-ASC protein-protein interaction at 15 to 60 nM preincubated for 1 hr followed by nigericin stimulation by co-immunoprecipitation assay; assay type: cell-based; details: dose 15-60 nM
[3] = molecular target: NACHT, LRR and PYD domains-containing protein 3 (Mus musculus) (UniProt Q8R4B8); experiment: Inhibition of NLRP3 inflammasome activation in LPS-primed mouse J774.A1 cells assessed as reduction in IL-1beta secretion preincubated for 1 hr followed by nigericin stimulation and measured after 1 hr by ELISA; assay type: cell-based; details: time 2.0 hrs, DDE = dose-dependent effect
[4] = molecular target: T1, Proteasome Macropain subunit MB1 (Homo sapiens, UniProt P28074); experiment: Inhibition of 20S proteasome beta5 subunit (unknown origin) using Suc-LLVY-AMC as flurogenic substrate measured after 1 hr by fluorescence based analysis; details: read-out: IC50
T1 sequence (P28074 whole entry): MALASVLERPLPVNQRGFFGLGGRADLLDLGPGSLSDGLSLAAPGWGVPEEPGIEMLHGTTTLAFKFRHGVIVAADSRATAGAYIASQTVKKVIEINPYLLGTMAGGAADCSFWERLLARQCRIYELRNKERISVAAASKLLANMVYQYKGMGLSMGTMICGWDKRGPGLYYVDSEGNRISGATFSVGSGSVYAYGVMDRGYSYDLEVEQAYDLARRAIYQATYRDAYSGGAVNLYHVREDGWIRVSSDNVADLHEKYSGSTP

[5] = Cytotoxicity against HEK293 cells incubated for 24 hrs; assay type: toxicity, cell-based; details: human
[6] = molecular target: T2, Interferon-inducible protein AIM2 (Mus musculus) (UniProt Q91VJ1); experiment: Inhibition of AIM2 inflammasome activation in LPS-primed mouse BMDM cells assessed as reduction in IL-1beta secretion at 7.5 to 60 nM preincubated for 1 hr followed by FLA-ST Ultrapure stimulation by ELISA; assay type: cell-based; details: dose 7.5-60 nM
T2 sequence (whole entry): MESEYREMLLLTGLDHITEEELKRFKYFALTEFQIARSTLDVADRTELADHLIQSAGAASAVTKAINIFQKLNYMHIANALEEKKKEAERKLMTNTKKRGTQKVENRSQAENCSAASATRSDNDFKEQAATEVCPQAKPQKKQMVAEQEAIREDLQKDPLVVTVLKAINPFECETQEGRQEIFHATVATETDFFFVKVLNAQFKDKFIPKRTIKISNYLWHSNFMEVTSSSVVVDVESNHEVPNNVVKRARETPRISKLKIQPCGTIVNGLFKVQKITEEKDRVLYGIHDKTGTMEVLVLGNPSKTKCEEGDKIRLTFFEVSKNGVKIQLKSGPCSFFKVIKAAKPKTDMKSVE

[7] = molecular target: NACHT, LRR and PYD domains-containing protein 3 (Mus musculus) (UniProt Q8R4B8); experiment: Inhibition of NLRP3 inflammasome activation in LPS-stimulated mouse J774.A1 cells assessed as increase in c-Cbl expression at 7.5 to 60 nM preincubated for 1 hr followed by nigericin stimulation measured after 1 hr by immunoblot analysis; assay type: cell-based; details: dose 7.5-60 nM, time 2.0 hrs
[8] = molecular target: NACHT, LRR and PYD domains-containing protein 3 (Mus musculus) (UniProt Q8R4B8); experiment: Inhibition of NLRP3 inflammasome activation in LPS-stimulated mouse J774.A1 cells assessed as increase in Cbl-b expression at 30 to 100 nM preincubated for 1 hr followed by nigericin stimulation measured after 1 hr by immunoblot analysis; assay type: cell-based; details: dose 30-100 nM, time 2.0 hrs
J774.A1 [9] = experiment: Inhibition of NF-kappaB in LPS treated mouse J774.A1 cells assessed as reduction in phosphorylated p65 level at 60 nM incubated for 1 hr followed by LPS stimulation measured after 5 hrs by Western blot analysis; assay type: cell-based; details: time 6.0 hrs
J774.A1 [10] = experiment: Inhibition of NF-kappaB in LPS treated mouse J774.A1 cells assessed as reduction in TNFalpha level at 7.5 to 60 nM incubated for 1 hr followed by LPS stimulation measured after 5 hrs by Western blot analysis; assay type: cell-based; details: dose 7.5-60 nM, time 6.0 hrs
J774.A1 [11] = experiment: Inhibition of NF-kappaB in LPS treated mouse J774.A1 cells assessed as reduction in pro-IL-1beta expression at 7.5 to 60 nM incubated for 1 hr followed by LPS stimulation measured after 5 hrs by Western blot analysis; assay type: cell-based; details: dose 7.5-60 nM, time 6.0 hrs
[12] = Tmax in Sprague-Dawley rat at 1 mg/kg, po measured upto 24 hrs by liquid chromatography tandem mass spectrometry; assay type: ADME, organism-based; details: in vivo
[13] = Cmax in Sprague-Dawley rat at 0.5 mg/kg, iv measured upto 24 hrs by liquid chromatography tandem mass spectrometry; assay type: ADME, organism-based; set-up: time < 24 hrs, dose 0.5 mg/kg, route iv; details: in vivo
[14] = AUC (0 to infinity) in Sprague-Dawley rat at 0.5 mg/kg, iv measured upto 24 hrs by liquid chromatography tandem mass spectrometry; assay type: ADME, organism-based; set-up: time < 24 hrs, dose 0.5 mg/kg, route iv; details: in vivo
[15] = AUC (0 to infinity) in Sprague-Dawley rat at 1 mg/kg, po measured upto 24 hrs by liquid chromatography tandem mass spectrometry; assay type: ADME, organism-based; set-up: dose 1 mg/kg, time < 24 hrs, route po; details: in vivo
[16] = Apparent volume of distribution in Sprague-Dawley rat at 0.5 mg/kg, iv measured upto 24 hrs by liquid chromatography tandem mass spectrometry; assay type: ADME, organism-based; details: in vivo, read-out: Vz
[17] = Oral bioavailability in Sprague-Dawley rat at 1 mg/kg measured upto 24 hrs by liquid chromatography tandem mass spectrometry; assay type: ADME, organism-based; details: in vivo
Mus musculus [18] = experiment: Protection against DSS-induced acute colitis in C57BL/6 mouse model assessed as improvement in loss of crypt architecture at 0.125 to 0.5 mg/kg, po administered for 10 days by Hematoxylin and eosin staining based analysis; assay type: functional, organism-based; details: dose 0.125-0.5 mg/kg, time 10.0 day
Mus musculus [19] = experiment: Protection against DSS-induced C57BL/6 mouse ulcerative colitis model assessed as reduction in pro-IL-1 beta level in colon at 0.125 to 0.5 mg/kg, po by Western blot analysis; assay type: functional, organism-based; details: dose 0.125-0.5 mg/kg
Mus musculus [20] = experiment: Protection against DSS-induced C57BL/6 mouse ulcerative colitis model assessed as reduction in NLRP3 level in colon at 0.125 to 0.5 mg/kg, po by Western blot analysis; assay type: functional, organism-based; details: dose 0.125-0.5 mg/kg

Chain of NACHT, LRR and PYD domains-containing protein 3 (Mus musculus) (Q8R4B8 whole entry, the tested form may be a part): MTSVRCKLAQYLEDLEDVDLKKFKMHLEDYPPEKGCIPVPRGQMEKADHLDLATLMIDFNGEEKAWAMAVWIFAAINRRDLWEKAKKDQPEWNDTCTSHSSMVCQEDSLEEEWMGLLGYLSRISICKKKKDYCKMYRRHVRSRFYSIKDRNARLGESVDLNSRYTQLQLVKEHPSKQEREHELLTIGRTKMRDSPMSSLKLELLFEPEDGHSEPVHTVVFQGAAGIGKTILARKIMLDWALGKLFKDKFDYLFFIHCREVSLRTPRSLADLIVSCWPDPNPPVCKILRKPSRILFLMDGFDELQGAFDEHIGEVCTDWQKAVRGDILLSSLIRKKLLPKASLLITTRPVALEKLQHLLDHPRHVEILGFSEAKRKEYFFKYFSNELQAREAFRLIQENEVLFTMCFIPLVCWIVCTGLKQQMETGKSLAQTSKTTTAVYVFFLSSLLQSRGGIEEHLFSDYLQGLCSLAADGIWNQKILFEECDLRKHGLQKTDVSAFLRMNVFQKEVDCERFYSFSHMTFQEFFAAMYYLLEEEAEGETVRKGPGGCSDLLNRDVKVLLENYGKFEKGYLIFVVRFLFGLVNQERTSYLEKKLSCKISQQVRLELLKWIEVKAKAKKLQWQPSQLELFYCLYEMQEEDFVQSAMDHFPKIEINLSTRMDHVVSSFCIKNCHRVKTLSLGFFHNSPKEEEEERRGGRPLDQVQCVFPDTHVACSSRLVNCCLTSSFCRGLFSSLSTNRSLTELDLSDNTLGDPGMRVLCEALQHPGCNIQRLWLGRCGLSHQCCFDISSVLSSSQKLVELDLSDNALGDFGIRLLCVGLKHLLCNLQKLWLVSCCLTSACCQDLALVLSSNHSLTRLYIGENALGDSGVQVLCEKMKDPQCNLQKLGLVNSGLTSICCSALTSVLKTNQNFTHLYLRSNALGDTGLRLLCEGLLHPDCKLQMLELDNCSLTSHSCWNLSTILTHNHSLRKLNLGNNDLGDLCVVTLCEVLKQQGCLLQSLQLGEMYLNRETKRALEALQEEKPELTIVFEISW

inhibition [2]: Active
inhibition [3]: Dde
IC50 [4]: 3.7 nM
inhibition [6]: Active
Activity [7]: Active
Activity [8]: Active
Tmax [12]: 15 min
Cmax [13]: 377 ng/mL
AUC [14]: 448.8 ng·h/mL
AUC [15]: 489.2 ng·h/mL
Vd [16]: 7.7 L/kg
bioavailability [17]: 48.1%
SMILES: CC(C)C[C@H](NC(=O)[C@H](Cc1ccccc1)NC(=O)c1c(F)cccc1F)B(O)O
Activity (Mus musculus [1]): Active
IC50 at 24 h [5]: < 79.4 nM
inhibition (J774.A1 [9]): Active
inhibition (J774.A1 [10]): Active
inhibition (J774.A1 [11]): Active
Activity (Mus musculus [18]): Active
Activity (Mus musculus [19]): Active
Activity (Mus musculus [20]): Active
